Reference: the NIST ThermoML archive (doi:10.1016/j.fluid.2014.07.036)

Assay: refractive index (other wavelength) (dimensionless); xn = mol fraction of the nth substance listed
Conditions: 85 kPa, Liquid, Wavelength=632.8 nm, minimum deviation angle

CCCCCCCC[n+]1ccn(C)c1.F[B-](F)(F)F [1-methyl-3-octylimidazolium tetrafluoroborate] + CCCCCCO
Conditions | refractive index
289.88 K, x1 = 0.004 | 1.4182
289.88 K, x1 = 0.354 | 1.4268
290.62 K, x1 = 0.007 | 1.418
290.62 K, x1 = 0.346 | 1.4264
291.35 K, x1 = 0.01 | 1.4178
291.35 K, x1 = 0.338 | 1.426
292.06 K, x1 = 0.009 | 1.4175
292.06 K, x1 = 0.325 | 1.4255
292.78 K, x1 = 0.011 | 1.4173
292.78 K, x1 = 0.317 | 1.4251
293.48 K, x1 = 0.014 | 1.4171
293.48 K, x1 = 0.31 | 1.4247
294.37 K, x1 = 1 | 1.4327
294.83 K, x1 = 0.018 | 1.4167
294.83 K, x1 = 0.289 | 1.4238
295.51 K, x1 = 0.02 | 1.4165
295.51 K, x1 = 0.282 | 1.4234
295.86 K, x1 = 1 | 1.4323
296.12 K, x1 = 0.021 | 1.4163
296.12 K, x1 = 0.269 | 1.4229
296.61 K, x1 = 0.024 | 1.4162
296.61 K, x1 = 0.263 | 1.4226
297.04 K, x1 = 0.026 | 1.4161
297.04 K, x1 = 0.252 | 1.4222
297.21 K, x1 = 1 | 1.4319
297.39 K, x1 = 0.027 | 1.416
297.39 K, x1 = 0.245 | 1.4219
297.66 K, x1 = 0.031 | 1.416
297.66 K, x1 = 0.24 | 1.4217
297.92 K, x1 = 0.034 | 1.416
297.92 K, x1 = 0.236 | 1.4215
298.17 K, x1 = 0.034 | 1.4159
298.17 K, x1 = 0.227 | 1.4212
298.38 K, x1 = 0.037 | 1.4159
298.38 K, x1 = 0.222 | 1.421
298.57 K, x1 = 0.042 | 1.416
298.57 K, x1 = 0.221 | 1.4209
298.73 K, x1 = 0.044 | 1.416
298.73 K, x1 = 0.219 | 1.4208
298.88 K, x1 = 0.046 | 1.416
298.88 K, x1 = 0.213 | 1.4206
298.93 K, x1 = 1 | 1.4313
299.01 K, x1 = 0.045 | 1.4159
299.01 K, x1 = 0.207 | 1.4204
299.12 K, x1 = 0.049 | 1.416
299.12 K, x1 = 0.208 | 1.4204
299.21 K, x1 = 0.05 | 1.416
299.21 K, x1 = 0.202 | 1.4202
299.37 K, x1 = 0.056 | 1.4161
299.37 K, x1 = 0.196 | 1.42
299.44 K, x1 = 0.057 | 1.4161
299.44 K, x1 = 0.193 | 1.4199
299.5 K, x1 = 0.061 | 1.4162
299.5 K, x1 = 0.194 | 1.4199
299.55 K, x1 = 0.061 | 1.4162
299.55 K, x1 = 0.191 | 1.4198
299.6 K, x1 = 0.062 | 1.4162
299.6 K, x1 = 0.188 | 1.4197
299.66 K, x1 = 0.063 | 1.4162
299.66 K, x1 = 0.184 | 1.4196
299.7 K, x1 = 0.067 | 1.4163
299.7 K, x1 = 0.181 | 1.4195
299.74 K, x1 = 0.067 | 1.4163
299.74 K, x1 = 0.178 | 1.4194
299.79 K, x1 = 0.071 | 1.4164
299.79 K, x1 = 0.175 | 1.4193
299.83 K, x1 = 0.075 | 1.4165
299.83 K, x1 = 0.175 | 1.4193
299.86 K, x1 = 0.075 | 1.4165
299.86 K, x1 = 0.172 | 1.4192
299.9 K, x1 = 0.079 | 1.4166
299.9 K, x1 = 0.169 | 1.4191
299.95 K, x1 = 0.083 | 1.4167
299.95 K, x1 = 0.165 | 1.419
299.97 K, x1 = 0.084 | 1.4167
299.97 K, x1 = 0.158 | 1.4188
299.99 K, x1 = 0.087 | 1.4168
299.99 K, x1 = 0.155 | 1.4187
300 K, x1 = 0.091 | 1.4169
300 K, x1 = 0.155 | 1.4187
300.02 K, x1 = 0.091 | 1.4169
300.02 K, x1 = 0.148 | 1.4185
300.03 K, x1 = 0.095 | 1.417
300.03 K, x1 = 0.148 | 1.4185
300.04 K, x1 = 0.098 | 1.4171
300.04 K, x1 = 0.144 | 1.4184
300.05 K, x1 = 0.102 | 1.4172
300.05 K, x1 = 0.141 | 1.4183
300.06 K, x1 = 0.102 | 1.4172
300.06 K, x1 = 0.105 | 1.4173
300.06 K, x1 = 0.109 | 1.4174
300.06 K, x1 = 0.134 | 1.4181
300.06 K, x1 = 0.137 | 1.4182
300.06 K, x1 = 0.141 | 1.4183
300.67 K, x1 = 1 | 1.4309
301.31 K, x1 = 0.1 | 1.4166
302.86 K, x1 = 0.1 | 1.416
302.95 K, x1 = 1 | 1.4303
303.16 K, x1 = 0.2 | 1.4188
304.31 K, x1 = 0.2 | 1.4183
304.45 K, x1 = 0.1 | 1.4155
304.54 K, x1 = 0.4 | 1.4225
304.54 K, x1 = 0.497 | 1.4239
304.6 K, x1 = 1 | 1.4298
305 K, x1 = 0.3 | 1.4202
305.51 K, x1 = 0.2 | 1.4179
305.52 K, x1 = 0.6 | 1.4251
305.52 K, x1 = 0.699 | 1.4263
305.69 K, x1 = 0.497 | 1.4236
305.73 K, x1 = 0.4 | 1.4221
305.93 K, x1 = 0.3 | 1.4199
306.12 K, x1 = 0.1 | 1.4148
306.24 K, x1 = 1 | 1.4293
306.66 K, x1 = 0.2 | 1.4175
306.68 K, x1 = 0.699 | 1.426
307.04 K, x1 = 0.6 | 1.4247
307.07 K, x1 = 0.3 | 1.4196
307.1 K, x1 = 0.891 | 1.428
307.23 K, x1 = 0.4 | 1.4216
307.73 K, x1 = 0.497 | 1.4229
307.83 K, x1 = 0.1 | 1.4142
307.92 K, x1 = 0.2 | 1.417
308.25 K, x1 = 0.699 | 1.4255
308.37 K, x1 = 0.798 | 1.4267
308.59 K, x1 = 0.6 | 1.4242
308.7 K, x1 = 0.3 | 1.419
308.74 K, x1 = 0.4 | 1.4211
308.75 K, x1 = 0.891 | 1.4276
309.13 K, x1 = 0.497 | 1.4225
309.18 K, x1 = 0.1 | 1.4137
309.19 K, x1 = 0.2 | 1.4165
309.66 K, x1 = 0.798 | 1.4264
309.72 K, x1 = 0.699 | 1.4251
310.02 K, x1 = 0.6 | 1.4237
310.19 K, x1 = 0.891 | 1.4272
310.59 K, x1 = 0.3 | 1.4184
310.6 K, x1 = 0.4 | 1.4204
310.63 K, x1 = 0.798 | 1.4261
310.77 K, x1 = 0.497 | 1.422
311.29 K, x1 = 0.699 | 1.4246
311.31 K, x1 = 0.891 | 1.4268
311.64 K, x1 = 0.6 | 1.4233
312.14 K, x1 = 0.3 | 1.4179
312.14 K, x1 = 0.4 | 1.4199
312.15 K, x1 = 0.798 | 1.4257
312.81 K, x1 = 0.699 | 1.4242
312.9 K, x1 = 0.497 | 1.4214
312.9 K, x1 = 0.6 | 1.4229
313.38 K, x1 = 0.891 | 1.4263
313.81 K, x1 = 0.798 | 1.4253
315.28 K, x1 = 0.798 | 1.4248
315.28 K, x1 = 0.891 | 1.4258
